Patent US20260297070A1, “CYCLIC [COMPOUND LEFT OUT] WRN INHIBITORS” (Nimbus Wadjet, Inc., priority 2023, published 2026)

target: T1, human Werner helicase (WRN-BV08, Uniprot Q14191, amino acids 517-1235 with L1074F point mutation) (Homo sapiens, UniProt Q14191, L1074F); assay: WRN (BV08) ADP-Glo Assay; type: biochemical; conditions: 0.15 nM WRN, 5 μM ATP, 0.1 nM DNA duplex, 15 min preincubation, 60 min at 25° C., pH 7.5, 1% DMSO; read-out: ADP-Glo_hWRN_IC50
T1 construct: Uniprot Q14191, amino acids 517-1235 with L1074F point mutation; TEV-cleavable 8×His (C, cleaved yes); made in house; host or cells: Sf9 insect cells (baculovirus)
T1 sequence (Q14191 with tags, fused parts or gaps L1074F limits assumed): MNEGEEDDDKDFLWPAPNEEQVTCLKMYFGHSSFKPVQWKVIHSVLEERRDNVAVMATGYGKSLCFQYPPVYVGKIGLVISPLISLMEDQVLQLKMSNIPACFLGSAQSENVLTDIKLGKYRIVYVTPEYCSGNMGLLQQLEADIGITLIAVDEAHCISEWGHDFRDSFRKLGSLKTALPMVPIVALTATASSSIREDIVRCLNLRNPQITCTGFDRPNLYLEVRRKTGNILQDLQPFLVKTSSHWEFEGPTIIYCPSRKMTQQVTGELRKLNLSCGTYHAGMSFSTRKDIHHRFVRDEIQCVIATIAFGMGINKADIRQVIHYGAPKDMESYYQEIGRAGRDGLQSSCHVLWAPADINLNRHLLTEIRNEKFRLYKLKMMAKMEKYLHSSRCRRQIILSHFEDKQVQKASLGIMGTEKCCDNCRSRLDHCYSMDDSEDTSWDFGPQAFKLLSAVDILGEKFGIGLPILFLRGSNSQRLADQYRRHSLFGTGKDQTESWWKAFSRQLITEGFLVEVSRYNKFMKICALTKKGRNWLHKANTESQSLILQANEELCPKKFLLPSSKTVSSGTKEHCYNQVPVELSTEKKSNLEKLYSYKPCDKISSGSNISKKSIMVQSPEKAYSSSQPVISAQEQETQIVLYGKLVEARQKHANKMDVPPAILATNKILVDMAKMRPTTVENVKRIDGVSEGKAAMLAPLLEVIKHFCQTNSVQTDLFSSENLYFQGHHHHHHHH
Summary of the method: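 ADP produced by WRN helicase fragment 517-1235 (L1074F, baculovirus/Sf9, untagged) read by ADP-Glo luminescence after 60 min at 25 °C with 5 μM ATP and 0.1 nM duplex DNA, following 15 min compound preincubation. Final enzyme 0.15 nM in Bicine pH 7.5 buffer, 1% DMSO; 20 μM NSC-617145 defined full inhibition.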

| SMILES | IC50 |
| --- | --- |
| O=C(Cc1csc(C2CCCC2)n1)N(Cc1ccncc1)C1C=CS(=O)(=O)C1 (centres unmarked) [I-445, 2-(2-cyclopentyl-1,3-thiazol-4-yl)-N-(1,1-dioxo-2,3-dihydro-1lambda6-thiophen-3-yl)-N-[(pyridin-4-yl)methyl]acetamide] | > 50 µM |
| Cc1nn(CC(=O)N(Cc2ccncc2)C2C=CS(=O)(=O)C2)cc1-c1ccccc1 (centres unmarked) [I-446, N-(1,1-dioxo-2,3-dihydro-1lambda6-thiophen-3-yl)-2-(3-methyl-4-phenyl-1H-pyrazol-1-yl)-N-[(pyridin-4-yl)methyl]acetamide] | > 50 µM |
| O=C(Nc1ccc(CC(=O)N(Cc2ccncc2)C2C=CS(=O)(=O)C2)cc1)C1CC1 (centres unmarked) [I-448, N-(4-{[(1,1-dioxo-2,3-dihydro-1lambda6-thiophen-3-yl)[(pyridin-4-yl)methyl]carbamoyl]methyl}phenyl)cyclopropanecarboxamide] | > 50 µM |
| O=C(Cc1ccc(C2CCCC2O)cc1)N(Cc1ccncc1)C1C=CS(=O)(=O)C1 (centres unmarked) [I-449, N-(1,1-dioxo-2,3-dihydro-1lambda6-thiophen-3-yl)-2-[4-(2-hydroxycyclopentyl)phenyl]-N-[(pyridin-4-yl)methyl]acetamide] | > 50 µM |
| O=C(Cn1ccc(-c2ccccc2)n1)N(Cc1ccncc1)C1C=CS(=O)(=O)C1 (centres unmarked) [I-450, N-(1,1-dioxo-2,3-dihydro-1lambda6-thiophen-3-yl)-2-(3-phenyl-1H-pyrazol-1-yl)-N-[(pyridin-4-yl)methyl]acetamide] | > 50 µM |
| COc1ccc(COc2cc(CC(=O)N(Cc3ccnc(OC)c3)C3C=CS(=O)(=O)C3)ccc2-c2ccc(F)cn2)cc1 (centres unmarked) [I-451, N-(1,1-dioxo-2,3-dihydro-1lambda6-thiophen-3-yl)-2-[4-(5-fluoropyridin-2-yl)-3-[(4-methoxyphenyl)methoxy]phenyl]-N-[(2-methoxypyridin-4-yl)methyl]acetamide] | > 50 µM |
| CC(=O)N(C)CC(C(=O)N(Cc1ccncc1)C1C=CS(=O)(=O)C1)c1ccc(-c2ccc(F)cc2)cc1 (centres unmarked) [I-452, N-(1,1-dioxo-2,3-dihydro-1lambda6-thiophen-3-yl)-2-{4′-fluoro-[1,1′-biphenyl]-4-yl}-3-(N-methylacetamido)-N-[(pyridin-4-yl)methyl]propanamide] | > 50 µM |
| COc1cc(CN(C(=O)Cc2ccc(-n3ccc(F)cc3=O)cc2F)C2C=CS(=O)(=O)C2)ccn1 (centres unmarked) [I-453, N-(1,1-dioxo-2,3-dihydro-1lambda6-thiophen-3-yl)-2-[2-fluoro-4-(4-fluoro-2-oxo-1,2-dihydropyridin-1-yl)phenyl]-N-[(2-methoxypyridin-4-yl)methyl]acetamide] | > 50 µM |
| O=C(Cn1ncc2ccccc21)N(Cc1ccncc1)C1C=CS(=O)(=O)C1 (centres unmarked) [I-454, N-(1,1-dioxo-2,3-dihydro-1lambda6-thiophen-3-yl)-2-(1H-indazol-1-yl)-N-[(pyridin-4-yl)methyl]acetamide] | > 50 µM |
| O=C(Cn1ncc2ccc(C(F)(F)F)cc21)N(Cc1ccncc1)C1C=CS(=O)(=O)C1 (centres unmarked) [I-455, N-(1,1-dioxo-2,3-dihydro-1lambda6-thiophen-3-yl)-N-[(pyridin-4-yl)methyl]-2-[6-(trifluoromethyl)-1H-indazol-1-yl]acetamide] | > 50 µM |
| CN1CCc2c(ccn2-c2ccc(CC(=O)N(Cc3ccccc3)C3C=CS(=O)(=O)C3)cc2)C1 (centres unmarked) [I-456, N-benzyl-N-(1,1-dioxo-2,3-dihydro-1lambda6-thiophen-3-yl)-2-(4-{5-methyl-1H,4H,5H,6H,7H-pyrrolo[3,2-c]pyridin-1-yl}phenyl)acetamide] | > 50 µM |
| O=C1CC(c2ccc(F)cc2)CCN1CC(=O)N(Cc1ccncc1)C1C=CS(=O)(=O)C1 (centres unmarked) [I-457, N-(1,1-dioxo-2,3-dihydro-1lambda6-thiophen-3-yl)-2-[4-(4-fluorophenyl)-2-oxopiperidin-1-yl]-N-[(pyridin-4-yl)methyl]acetamide] | > 50 µM |
| CN(CC(C(=O)N(Cc1ccncc1)C1C=CS(=O)(=O)C1)c1ccc(-c2ccc(F)cc2)cc1)S(C)(=O)=O (centres unmarked) [I-458, N-(1,1-dioxo-2,3-dihydro-1lambda6-thiophen-3-yl)-2-{4′-fluoro-[1,1′-biphenyl]-4-yl}-3-(N-methylmethanesulfonamido)-N-[(pyridin-4-yl)methyl]propanamide] | > 50 µM |
| CN(C)C(=O)CC(C(=O)N(Cc1ccnc(C(C)(C)O)c1)C1C=CS(=O)(=O)C1)c1ccc(S(F)(F)(F)(F)F)cc1 (centres unmarked) [I-460, N-(1,1-dioxo-2,3-dihydro-1lambda6-thiophen-3-yl)-N-{[2-(2-hydroxypropan-2-yl)pyridin-4-yl]methyl}-N′,N′-dimethyl-2-[4-(pentafluoro-lambda6-sulfanyl)phenyl]butanediamide] | > 50 µM |
| O=C(Cc1ccc(N2CCC2)cc1)N(Cc1ccncc1)C1C=CS(=O)(=O)C1 (centres unmarked) [I-461, 2-[4-(azetidin-1-yl)phenyl]-N-(1,1-dioxo-2,3-dihydro-1lambda6-thiophen-3-yl)-N-[(pyridin-4-yl)methyl]acetamide] | > 50 µM |
| O=C(Cc1ccc(-n2cccc2)cc1)N(CCc1ccncc1)C1C=CS(=O)(=O)C1 (centres unmarked) [I-462, N-(1,1-dioxo-2,3-dihydro-1lambda6-thiophen-3-yl)-N-[2-(pyridin-4-yl)ethyl]-2-[4-(1H-pyrrol-1-yl)phenyl]acetamide] | > 50 µM |
| O=C(Cc1ccc(OC2CCC2)cc1)N(Cc1ccncc1)C1C=CS(=O)(=O)C1 (centres unmarked) [I-463, 2-(4-cyclobutoxyphenyl)-N-(1,1-dioxo-2,3-dihydro-1lambda6-thiophen-3-yl)-N-[(pyridin-4-yl)methyl]acetamide] | > 50 µM |
| O=C(Cc1ccc(N2CCCC2)cc1)N(Cc1ccncc1)C1C=CS(=O)(=O)C1 (centres unmarked) [I-464, N-(1,1-dioxo-2,3-dihydro-1lambda6-thiophen-3-yl)-N-[(pyridin-4-yl)methyl]-2-[4-(pyrrolidin-1-yl)phenyl]acetamide] | > 50 µM |
| O=C(Cc1ccc(-c2ccc(F)cc2)cc1C(F)(F)F)N(Cc1ccncc1)C1C=CS(=O)(=O)C1 (centres unmarked) [I-465, N-(1,1-dioxo-2,3-dihydro-1lambda6-thiophen-3-yl)-2-[4′-fluoro-3-(trifluoromethyl)-[1,1′-biphenyl]-4-yl]-N-[(pyridin-4-yl)methyl]acetamide] | > 50 µM |
| O=C(Cc1ccc(-c2nccs2)cc1)N(Cc1ccncc1)C1C=CS(=O)(=O)C1 (centres unmarked) [I-466, N-(1,1-dioxo-2,3-dihydro-1lambda6-thiophen-3-yl)-N-[(pyridin-4-yl)methyl]-2-[4-(1,3-thiazol-2-yl)phenyl]acetamide] | > 50 µM |
| O=C(Cc1ccc(-n2cccc2)cc1)N(Cc1ccccn1)C1C=CS(=O)(=O)C1 (centres unmarked) [I-467, N-(1,1-dioxo-2,3-dihydro-1lambda6-thiophen-3-yl)-N-[(pyridin-2-yl)methyl]-2-[4-(1H-pyrrol-1-yl)phenyl]acetamide] | > 50 µM |
| N#Cc1cc(-n2cccc2)ccc1CC(=O)N(Cc1ccncc1)C1C=CS(=O)(=O)C1 (centres unmarked) [I-468, 2-[2-cyano-4-(1H-pyrrol-1-yl)phenyl]-N-(1,1-dioxo-2,3-dihydro-1lambda6-thiophen-3-yl)-N-[(pyridin-4-yl)methyl]acetamide] | > 50 µM |
| Cc1ccc(-c2ccc(CC(=O)N(Cc3ccncc3)C3C=CS(=O)(=O)C3)cc2)cc1 (centres unmarked) [I-470, N-(1,1-dioxo-2,3-dihydro-1lambda6-thiophen-3-yl)-2-{4′-methyl-[1,1′-biphenyl]-4-yl}-N-[(pyridin-4-yl)methyl]acetamide] | > 50 µM |
